The test system of the assay is LNCaP/AR cells. Put plainly: Inhibition of the proliferation of LNCap/AR cells (CCK-8). The assay is classed as cell-based. The settings on record: LNCaP/AR cells, 6 days culture, CCK-8, read-out: LNCap/AR IC50. In short, it runs like this:
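Proliferation was read by CCK-8 (OD 450 nm, 1 h) after six days of compound exposure. Cells were seeded at 1000 per well overnight, then dosed in duplicate over nine 3-fold steps with a top final concentration of 10 μM in 0.1% DMSO; IC50 was fitted from inhibition curves.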

The values below come from patent US20220257774A1, “AROMATIC AMINE AR AHD BET TARGETING PROTEIN DEGRADATION CHIMERA COMPOUND AND USE” (HINOVA PHARMACEUTICALS INC., priority 2019, published 2022).

Read-outs that look alike come from different tables or passages of the source.

As for `Cc1ccc(-c2c(C)noc2C)cc1N(CCCCOCC(=O)N[C@H](C(=O)N1C[C@H](O)C[C@H]1C(=O)N[C@@H](C)c1ccc(-c2scnc2C)cc1)C(C)(C)C)c1ccc(-n2ccnc2)cc1` [Compound 85, (2S,4R)-1-((S)-2-(2-(4-((4-(1H-imidazol-1-yl)phenyl)(5-(3,5-dimethylisoxazol-4-yl)-2-methylphenyl)amino)butoxy)acetamido)-3,3-dimethylbutyryl)-4-hydroxy-N—((S)-1-(4-(4-methylthiazol-5-yl)phenyl)ethyl)pyrrolidine-2-carboxamide], the IC50 (144 h) lay in the range of 101 to 500 nM.
Still for that read-out and setting: for `CC(=O)O[C@@H]1C[C@@H](C(=O)N[C@@H](C)c2ccc(-c3scnc3C)cc2)N(C(=O)[C@@H](NC(=O)COCCCCN(c2ccc(-n3ccnc3)cc2)c2cc(-c3c(C)noc3C)ccc2C)C(C)(C)C)C1` [Compound 86, (3R,5S)-1-((S)-2-(2-(4-((4-(1H-imidazol-1-yl)phenyl)(5-(3,5-dimethylisoxazol-4-yl)-2-methylphenyl)amino)butoxy)acetamido)-3,3-dimethylbutyryl)-5-((S)-1-(4-(4-methylthiazol-5-yl)phenyl)ethyl)carbamoyl)pyrrolidine-3-yl acetate] the value was 101 to 500 nM; for `Cc1ccc(-c2c(C)noc2C)cc1N(CCCCCCCCOCC(=O)N[C@H](C(=O)N1C[C@H](O)C[C@H]1C(=O)N[C@@H](C)c1ccc(-c2scnc2C)cc1)C(C)(C)C)c1ccc(-n2ccnc2)cc1` [Compound 87, (2S,4R)-1-((S)-2-(2-((8-((4-(1H-imidazol-1-yl)phenyl)(5-(3,5-methylisoxazol-4-yl)-2-methylphenyl)amino)cetyl)oxy)acetylamino)-3,3-dimethylbutyryl)-4-hydroxy-N—((S)-1-(4-(4-methylthiazol-5-yl)phenyl)ethyl)pyrrolidinyl-2-formamide], 501 to 2000 nM.
For `CCCCCCCCC(CCCCCCCOCC(=O)N[C@H](C(=O)N1C[C@H](OC(C)=O)C[C@H]1C(=O)N[C@@H](C)c1ccc(-c2scnc2C)cc1)C(C)(C)C)N(c1ccc(-n2ccnc2)cc1)c1cc(-c2c(C)noc2C)ccc1C` (stereo partly drawn) [Compound 88, (3R,5S)-1-((S)-2-(2-((8-((4-(1H-imidazol-1-yl)phenyl)(5-(3,5-dimethylisoxazol-4-yl)-2-methylphenyl)amino)cetyl)oxy)acetylamino)-3,3-dimethylbutyryl)-5-(((S)-1-(4-(4-methylthiazol-5-yl)phenyl)ethyl)carbamoyl)pyrrolidine-3-yl acetate], where the note is “144 h”, the IC50 lay in the range of 501 to 2000 nM.
The same measure, in the same setting: as for `Cc1ccc(-c2c(C)noc2C)cc1N(CCCCCOCC(=O)N[C@H](C(=O)N1C[C@H](O)C[C@H]1C(=O)N[C@@H](C)c1ccc(-c2scnc2C)cc1)C(C)(C)C)c1ccc(-n2ccnn2)cc1` [Compound 89, (2S,4R)-1-((S)-2-(2-((5-((4-(1H-1,2,3-triazol-1-yl)phenyl)(5-(3,5-dimethylisoxazol-4-yl)-2-methylphenyl)amino)pentyl)oxy)acetylamino)-3,3-dimethylbutyryl)-4-hydroxy-N—((S)-1-(4-(4-methylthiazol-5-yl)phenyl)ethyl)-pyrrolidinyl-2-formamide], the figure is below 100 nM; as for `CC(=O)O[C@@H]1C[C@@H](C(=O)N[C@@H](C)c2ccc(-c3scnc3C)cc2)N(C(=O)[C@@H](NC(=O)COCCCCCN(c2ccc(-n3ccnn3)cc2)c2cc(-c3c(C)noc3C)ccc2C)C(C)(C)C)C1` [Compound 90, (3R,5S)-1-((S)-2-(2-((5-((4-(1H-1,2,3-triazol-1-yl)phenyl)(5-(3,5-dimethylisoxazol-4-yl)-2-methylphenyl)amino)pentyl)oxy)acetylamino)-3,3-dimethylbutyryl)-5-(((S)-1-(4-(4-methylthiazol-5-yl)phenyl)ethyl)aminoformyl)pyrrolidinyl-3-yl acetate], 101 to 500 nM; as for `Cc1ccc(-c2c(C)noc2C)cc1N(CCCCCOCC(=O)N[C@H](C(=O)N1C[C@H](O)C[C@H]1C(=O)N[C@@H](C)c1ccc(-c2scnc2C)cc1)C(C)(C)C)c1ccc(-n2cncn2)cc1` [Compound 91, (2S,4R)-1-((S)-2-(2-((5-((4-(1H-1,2,4-triazol-1-yl)phenyl)(5-(3,5-dimethylisoxazol-4-yl)-2-methylphenyl)amino)pentyl)oxy)acetylamino)-3,3-dimethylbutyryl)-4-hydroxy-N—((S)-1-(4-(4-methylthiazol-5-yl)phenyl)ethyl)-pyrrolidinyl-2-formamide], 101 to 500 nM.
Same read-out and setting: for `CC(=O)O[C@@H]1C[C@@H](C(=O)N[C@@H](C)c2ccc(-c3scnc3C)cc2)N(C(=O)[C@@H](NC(=O)COCCCCCN(c2ccc(-n3cncn3)cc2)c2cc(-c3c(C)noc3C)ccc2C)C(C)(C)C)C1` [Compound 92, (3R,5S)-1-((S)-2-(2-((5-((4-(1H-1,2,4-triazol-1-yl)phenyl)(5-(3,5-dimethylisoxazol-4-yl)-2-methylphenyl)amino)pentyl)oxy)acetylamino)-3,3-dimethylbutyryl)-5-(((S)-1-(4-(4-methylthiazol-5-yl)phenyl)ethyl)aminoformyl)pyrrolidinyl-3-yl acetate] the value was 101 to 500 nM; for `Cc1ccc(-c2c(C)noc2C)cc1N(CCCCCOCC(=O)N[C@H](C(=O)N1C[C@H](O)C[C@H]1C(=O)N[C@@H](C)c1ccc(-c2scnc2C)cc1)C(C)(C)C)c1ccc(-n2cnnc2)cc1` [Compound 93, (2S,4R)-1-((S)-2-(2-((5-((4-(1H-1,3,4-triazol-1-yl)phenyl)(5-(3,5-dimethylisoxazol-4-yl)-2-methylphenyl)amino)pentyl)oxy)acetylamino)-3,3-dimethylbutyryl)-4-hydroxy-N—((S)-1-(4-(4-methylthiazol-5-yl)phenyl)ethyl)-pyrrolidinyl-2-formamide], 101 to 500 nM.
The same measure, in the same setting: for `CC(=O)O[C@@H]1C[C@@H](C(=O)N[C@@H](C)c2ccc(-c3scnc3C)cc2)N(C(=O)[C@@H](NC(=O)COCCCCCN(c2ccc(-n3cnnc3)cc2)c2cc(-c3c(C)noc3C)ccc2C)C(C)(C)C)C1` [Compound 94] the value was 101 to 500 nM; for `Cc1cn(-c2ccc(N(CCCCCOCC(=O)N[C@H](C(=O)N3C[C@H](O)C[C@H]3C(=O)N[C@@H](C)c3ccc(-c4scnc4C)cc3)C(C)(C)C)c3cc(-c4c(C)noc4C)ccc3C)cc2)cn1` [Compound 95, (2S,4R)-1-((S)-2-(2-((5-((5-(3,5-dimethylisoxazol-4-yl)-2-methylphenyl)(4-(4-methyl-1H-imidazol-1-yl)phenyl)amino)pentyl)oxy)acetylamino)-3,3-dimethylbutyryl)-4-hydroxy-N—((S)-1-(4-(4-methylthiazol-5-yl)phenyl)ethyl)-pyrrolidinyl-2-formamide], 101 to 500 nM.
As for `CC(=O)O[C@@H]1C[C@@H](C(=O)N[C@@H](C)c2ccc(-c3scnc3C)cc2)N(C(=O)[C@@H](NC(=O)COCCCCCN(c2ccc(-n3cnc(C)c3)cc2)c2cc(-c3c(C)noc3C)ccc2C)C(C)(C)C)C1` [Compound 96, (3R,5S)-1-((S)-2-(2-((5-((5-(3,5-dimethylisoxazol-4-yl)-2-methylphenyl)(4-(4-methyl-1H-imidazol-1-yl)phenyl)amino)pentyl)oxy)acetylamino)-3,3-dimethylbutyryl)-5-(((S)-1-(4-(4-methylthiazol-5-yl)phenyl)ethyl)aminoformyl)pyrrolidinyl-3-yl acetate], the IC50 is below 100 nM.
